For 19 compounds, IC50 results are on record in patent US20250171454A1, “HETEROBIFUNCTIONAL […] AMINOPURINE AND RELATED COMPOUNDS AND THEIR USE IN NSD2 DEGRADATION AND TREATING MEDICAL CONDITIONS” (K36 Therapeutics, Inc., priority 2023, published 2025).

pIC50: −log10 of the molar value. Some results are limits rather than exact numbers.

In the test the target is recombinant human NSD2 (amino acids 2-end) with N-terminal His tag (Homo sapiens (Human), UniProt O96028). Description: NSD2 inhibitory activity, modified RBC HotSpot HMT Assay. Type of test: biochemical. As to conditions: NSD2 2 nM, chicken oligonucleosomes 0.05 mg/mL, 3H-SAM 1 μM, 1 hour at 30° C. The method, then: Exemplary compounds were tested for NSD2 inhibitory activity using a modified RBC HotSpot HMT Assay.
recombinant human NSD2 (amino acids 2-end) with N-terminal His tag, sequence (O96028 2-1365 limits assumed): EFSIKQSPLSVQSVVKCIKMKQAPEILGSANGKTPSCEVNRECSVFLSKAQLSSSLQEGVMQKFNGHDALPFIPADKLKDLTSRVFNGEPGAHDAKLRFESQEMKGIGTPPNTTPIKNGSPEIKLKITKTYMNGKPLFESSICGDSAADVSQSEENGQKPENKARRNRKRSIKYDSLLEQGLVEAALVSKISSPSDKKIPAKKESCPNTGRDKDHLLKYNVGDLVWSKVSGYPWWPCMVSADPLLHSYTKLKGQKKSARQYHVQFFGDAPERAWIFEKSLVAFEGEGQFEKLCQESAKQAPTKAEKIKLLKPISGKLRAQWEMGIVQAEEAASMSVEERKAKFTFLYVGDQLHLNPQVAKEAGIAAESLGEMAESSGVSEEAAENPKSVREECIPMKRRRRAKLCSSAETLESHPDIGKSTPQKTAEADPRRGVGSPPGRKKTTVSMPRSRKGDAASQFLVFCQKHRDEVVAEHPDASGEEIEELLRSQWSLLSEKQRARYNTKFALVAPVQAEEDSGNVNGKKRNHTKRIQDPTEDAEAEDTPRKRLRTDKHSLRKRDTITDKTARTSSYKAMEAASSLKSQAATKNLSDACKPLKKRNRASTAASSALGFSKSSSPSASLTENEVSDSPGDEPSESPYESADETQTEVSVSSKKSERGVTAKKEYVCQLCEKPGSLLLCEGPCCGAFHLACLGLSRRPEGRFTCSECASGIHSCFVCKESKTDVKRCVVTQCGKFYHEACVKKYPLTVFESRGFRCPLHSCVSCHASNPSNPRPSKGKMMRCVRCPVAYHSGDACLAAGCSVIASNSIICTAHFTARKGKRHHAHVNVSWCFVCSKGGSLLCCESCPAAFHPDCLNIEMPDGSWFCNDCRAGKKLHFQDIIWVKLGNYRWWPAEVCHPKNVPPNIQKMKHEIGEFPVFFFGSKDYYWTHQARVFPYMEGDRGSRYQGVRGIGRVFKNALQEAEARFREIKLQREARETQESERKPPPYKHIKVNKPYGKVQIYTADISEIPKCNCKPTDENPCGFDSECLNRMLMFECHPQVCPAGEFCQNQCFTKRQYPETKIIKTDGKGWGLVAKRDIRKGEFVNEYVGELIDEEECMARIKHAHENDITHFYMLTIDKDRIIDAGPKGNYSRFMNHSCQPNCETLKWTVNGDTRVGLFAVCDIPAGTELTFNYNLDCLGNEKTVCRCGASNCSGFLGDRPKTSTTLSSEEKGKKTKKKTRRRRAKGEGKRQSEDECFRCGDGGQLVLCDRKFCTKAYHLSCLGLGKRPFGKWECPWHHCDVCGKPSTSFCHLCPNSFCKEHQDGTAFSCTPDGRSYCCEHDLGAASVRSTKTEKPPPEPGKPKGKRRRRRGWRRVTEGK
A reaction mixture was prepared by adding oligonucleosomes from chicken (0.05 mg/mL) to freshly prepared reaction buffer containing 50 mM Tris-HCl (pH 8.5), 50 mM NaCl, 5 mM MgCl2, 0.01% Brij35, 1 mM DTT, and 1% DMSO followed by the addition of recombinant human NSD2 (amino acids 2-end) with N-terminal His tag (2 nM; GenBank Accession No. NM_001042424; MW=155.5 kDa; expressed in Sf9 insect cells) and gentle mixing. The test compounds were diluted in DMSO (to 10 mM), and added to the reaction mixture in nanoliter amounts by using Acoustic Technology (Echo 550, LabCyte Inc. Sunnyvale, CA) and incubated for 20 minutes at room temperature. […] The reaction mixture was delivered to filter paper, and the methylated substrate was quantified by scintillation counting.
Data analysis was performed using Excel and GraphPad Prism software for IC50 curve fits. For additional information on the histone methyltransferase assay, see, for example, Horiuchi K Y, et al., “Assay Development for Histone Methyltransferases,” Assay Drug Dev Technol.
For orientation: pIC50 means the negative decadic logarithm of the IC50, by convention in mol/L. Consider `Nc1ncnc2c1ncn2Cc1cc(-c2cc(F)c(OCCCCNc3cccc4c3C(=O)N(C3CCC(=O)NC3=O)C4=O)cc2F)ncc1N1CCC[C@](N)([C@H](O)C(F)F)C1` (stereo partly drawn) [I-61, 4-((4-(4-(5-((R)-3-amino-3-((S)-2,2-difluoro-1-hydroxyethyl)piperidin-1-yl)-4-((6-amino-9H-purin-9-yl)methyl)pyridin-2-yl)-2,5-difluorophenoxy)butyl)amino)-2-(2,6-dioxopiperidin-3-yl)isoindoline-1,3-dione], for which the pIC50 is more than 7.30.

Regarding `Nc1ncnc2c1ncn2Cc1cc(-c2cc(F)c(OCCCCNc3cccc4c3C(=O)N(C3CCC(=O)NC3=O)C4=O)c(F)c2)ncc1N1CCC[C@@](N)(c2ccccn2)C1` (stereo partly drawn) [I-68, 4-((4-(4-(5-((S)-3-amino-3-(pyridin-2-yl)piperidin-1-yl)-4-((6-amino-9H-purin-9-yl)methyl)pyridin-2-yl)-2,6-difluorophenoxy)butyl)amino)-2-(2,6-dioxopiperidin-3-yl)isoindoline-1,3-dione], the pIC50 was less than 6.00.

Consider `Nc1ncnc2c1ncn2Cc1cc(-c2cc(F)c(OCCCCCNc3cccc4c3C(=O)N(C3CCC(=O)NC3=O)C4=O)c(F)c2)ncc1N1CCC[C@@](N)(c2ccccn2)C1` (stereo partly shown) [I-70], for which the pIC50 was less than 6.00.

As to `Nc1ncnc2c1ncn2Cc1cc(-c2cc(F)c(OCC(=O)NCCNc3cccc4c3C(=O)N(C3CCC(=O)NC3=O)C4=O)cc2F)ncc1N1CCC[C@](N)([C@H](O)C(F)F)C1` (stereo partly drawn) [I-65, 2-(4-(5-((R)-3-amino-3-((S)-2,2-difluoro-1-hydroxyethyl)piperidin-1-yl)-4-((6-amino-9H-purin-9-yl)methyl)pyridin-2-yl)-2,5-difluorophenoxy)-N-(2-((2-(2,6-dioxopiperidin-3-yl)-1,3-dioxoisoindolin-4-yl)amino)ethyl)acetamide], the pIC50 was more than 7.30.

Take `COc1cc(F)c(-c2cc(Cn3cnc4c(NCCCCCNc5cccc6c5C(=O)N(C5CCC(=O)NC5=O)C6=O)ncnc43)c(N3CCC[C@](N)([C@H](O)C(F)F)C3)cn2)cc1F` (stereo partly drawn) [I-76, 4-((5-((9-((5-((R)-3-amino-3-((S)-2,2-difluoro-1-hydroxyethyl)piperidin-1-yl)-2-(2,5-difluoro-4-methoxyphenyl)pyridin-4-yl)methyl)-9H-purin-6-yl)amino)pentyl)amino)-2-(2,6-dioxopiperidin-3-yl)isoindoline-1,3-dione]: the pIC50 was less than 6.00.

In the case of `Cc1ncsc1-c1ccc(CNC(=O)[C@@H]2C[C@@H](O)CN2C(=O)[C@@H](NC(=O)CCOCCOCCOCCOc2cc(F)c(-c3cc(Cn4cnc5c(N)ncnc54)c(N4CCC[C@](N)([C@H](O)C(F)F)C4)cn3)cc2F)C(C)(C)C)cc1` [I-84], the pIC50 is 6.00 to 7.00.

On to `COc1c(F)cc(-c2cc(Cn3cnc4c(NCCCCCNc5cccc6c5C(=O)N(C5CCC(=O)NC5=O)C6=O)ncnc43)c(N3CCC[C@](N)(c4ccccn4)C3)cn2)cc1F` (stereo partly drawn) [I-79, 4-((5-((9-((5-((R)-3-amino-3-(pyridin-2-yl)piperidin-1-yl)-2-(3,5-difluoro-4-methoxyphenyl)pyridin-4-yl)methyl)-9H-purin-6-yl)amino)pentyl)amino)-2-(2,6-dioxopiperidin-3-yl)isoindoline-1,3-dione], for which the pIC50 was 6.00 to 7.00.

Turning to `COc1c(F)cc(-c2cc(Cn3cnc4c(NCCCCCCNc5cccc6c5C(=O)N(C5CCC(=O)NC5=O)C6=O)ncnc43)c(N3CCC[C@@](N)(c4ccccn4)C3)cn2)cc1F` (stereo partly drawn) [I-81, 4-((6-((9-((5-((S)-3-amino-3-(pyridin-2-yl)piperidin-1-yl)-2-(3,5-difluoro-4-methoxyphenyl)pyridin-4-yl)methyl)-9H-purin-6-yl)amino)hexyl)amino)-2-(2,6-dioxopiperidin-3-yl)isoindoline-1,3-dione], the pIC50 is 7.00 to 7.30.

In the case of `COc1c(F)cc(-c2cc(Cn3cnc4c(NCCCCCCCNc5cccc6c5C(=O)N(C5CCC(=O)NC5=O)C6=O)ncnc43)c(N3CCC[C@](N)(c4ccccn4)C3)cn2)cc1F` (stereo partly drawn) [I-82, 4-((7-((9-((5-((R)-3-amino-3-(pyridin-2-yl)piperidin-1-yl)-2-(3,5-difluoro-4-methoxyphenyl)pyridin-4-yl)methyl)-9H-purin-6-yl)amino)heptyl)amino)-2-(2,6-dioxopiperidin-3-yl)isoindoline-1,3-dione], the pIC50 is less than 6.00.

As to `Nc1ncnc2c1ncn2Cc1cc(-c2cc(F)c(OCCCCCNc3cccc4c3C(=O)N(C3CCC(=O)NC3=O)C4=O)c(F)c2)ncc1N1CCC[C@](N)(c2ccccn2)C1` (stereo partly drawn) [I-69, 4-((5-(4-(5-((R)-3-amino-3-(pyridin-2-yl)piperidin-1-yl)-4-((6-amino-9H-purin-9-yl)methyl)pyridin-2-yl)-2,6-difluorophenoxy)pentyl)amino)-2-(2,6-dioxopiperidin-3-yl)isoindoline-1,3-dione], the pIC50 was more than 7.30.

`Nc1ncnc2c1ncn2Cc1cc(-c2cc(F)c(OCCCCCNc3cccc4c3C(=O)N(C3CCC(=O)NC3=O)C4=O)cc2F)ncc1N1CCC[C@](N)([C@H](O)C(F)F)C1` (stereo partly drawn) [I-62, 4-((5-(4-(5-((R)-3-amino-3-((S)-2,2-difluoro-1-hydroxyethyl)piperidin-1-yl)-4-((6-amino-9H-purin-9-yl)methyl)pyridin-2-yl)-2,5-difluorophenoxy)pentyl)amino)-2-(2,6-dioxopiperidin-3-yl)isoindoline-1,3-dione]: the pIC50 is 7.00 to 7.30.

Consider `COc1c(F)cc(-c2cc(Cn3cnc4c(NCCCCCCNc5cccc6c5C(=O)N(C5CCC(=O)NC5=O)C6=O)ncnc43)c(N3CCC[C@](N)(c4ccccn4)C3)cn2)cc1F` (stereo partly drawn) [I-80, 4-((6-((9-((5-((R)-3-amino-3-(pyridin-2-yl)piperidin-1-yl)-2-(3,5-difluoro-4-methoxyphenyl)pyridin-4-yl)methyl)-9H-purin-6-yl)amino)hexyl)amino)-2-(2,6-dioxopiperidin-3-yl)isoindoline-1,3-dione], for which the pIC50 was less than 6.00.

In the case of `Nc1ncnc2c1ncn2Cc1cc(-c2cc(F)c(OCCCCCCNc3cccc4c3C(=O)N(C3CCC(=O)NC3=O)C4=O)c(F)c2)ncc1N1CCC[C@](N)(c2ccccn2)C1` (stereo partly drawn) [I-71, 4-((6-(4-(5-((R)-3-amino-3-(pyridin-2-yl)piperidin-1-yl)-4-((6-amino-9H-purin-9-yl)methyl)pyridin-2-yl)-2,6-difluorophenoxy)hexyl)amino)-2-(2,6-dioxopiperidin-3-yl)isoindoline-1,3-dione], the pIC50 was more than 7.30.

Regarding `Nc1ncnc2c1ncn2Cc1cc(-c2cc(F)c(OCCCCNc3cccc4c3C(=O)N(C3CCC(=O)NC3=O)C4=O)c(F)c2)ncc1N1CCC[C@](N)(c2ccccn2)C1` (stereo partly drawn) [I-67, 4-((4-(4-(5-((R)-3-amino-3-(pyridin-2-yl)piperidin-1-yl)-4-((6-amino-9H-purin-9-yl)methyl)pyridin-2-yl)-2,6-difluorophenoxy)butyl)amino)-2-(2,6-dioxopiperidin-3-yl)isoindoline-1,3-dione], the pIC50 was more than 7.30.

With `Nc1ncnc2c1ncn2Cc1cc(-c2cc(F)c(OCCCCCCNc3cccc4c3C(=O)N(C3CCC(=O)NC3=O)C4=O)cc2F)ncc1N1CCC[C@](N)([C@H](O)C(F)F)C1` (stereo partly drawn) [I-63, 4-((6-(4-(5-((R)-3-amino-3-((S)-2,2-difluoro-1-hydroxyethyl)piperidin-1-yl)-4-((6-amino-9H-purin-9-yl)methyl)pyridin-2-yl)-2,5-difluorophenoxy)hexyl)amino)-2-(2,6-dioxopiperidin-3-yl)isoindoline-1,3-dione], the pIC50 is 6.00 to 7.00.

On to `COc1cc(F)c(-c2cc(Cn3cnc4c(NCCCCCCNc5cccc6c5C(=O)N(C5CCC(=O)NC5=O)C6=O)ncnc43)c(N3CCC[C@](N)([C@H](O)C(F)F)C3)cn2)cc1F` (stereo partly drawn) [I-77, 4-((6-((9-((5-((R)-3-amino-3-((S)-2,2-difluoro-1-hydroxyethyl)piperidin-1-yl)-2-(2,5-difluoro-4-methoxyphenyl)pyridin-4-yl)methyl)-9H-purin-6-yl)amino)hexyl)amino)-2-(2,6-dioxopiperidin-3-yl)isoindoline-1,3-dione], for which the pIC50 was less than 6.00.

Turning to `Nc1ncnc2c1ncn2Cc1cc(-c2cc(F)c(OCC(=O)Nc3cccc4c3C(=O)N(C3CCC(=O)NC3=O)C4=O)cc2F)ncc1N1CCC[C@](N)([C@H](O)C(F)F)C1` (stereo partly shown) [I-64], the pIC50 was more than 7.30.

For the compound `Cc1ncsc1-c1ccc(CNC(=O)[C@@H]2C[C@@H](O)CN2C(=O)[C@@H](NC(=O)CCCCCCCCCCCOc2cc(F)c(-c3cc(Cn4cnc5c(N)ncnc54)c(N4CCC[C@](N)([C@H](O)C(F)F)C4)cn3)cc2F)C(C)(C)C)cc1` [I-85], the pIC50 is 6.00 to 7.00.

In the case of `Nc1ncnc2c1ncn2Cc1cc(-c2cc(F)c(OCC(=O)NCCCNc3cccc4c3C(=O)N(C3CCC(=O)NC3=O)C4=O)cc2F)ncc1N1CCC[C@](N)([C@H](O)C(F)F)C1` (stereo partly drawn) [I-66, 2-(4-(5-((R)-3-amino-3-((S)-2,2-difluoro-1-hydroxyethyl)piperidin-1-yl)-4-((6-amino-9H-purin-9-yl)methyl)pyridin-2-yl)-2,5-difluorophenoxy)-N-(3-((2-(2,6-dioxopiperidin-3-yl)-1,3-dioxoisoindolin-4-yl)amino)propyl)acetamide], the negative logarithm of the IC50 (pIC50) is more than 7.30.
